Results on four compounds are retold here after ChEMBL document CHEMBL4840377, “Colletofragarone A2 and Colletoins A-C from a Fungus Colletotrichum sp. Decrease Mutant p53 Levels in Cells” (J Nat Prod, 2021).

The term IC50 denotes the concentration at which inhibition is half-maximal. A high value points to weaker potency.

The subject of one assay is SAOS-2. The assay is described as follows: Cytotoxicity against human SAOS-2 cells harbouring p53 R175H mutant incubated for 3 days by MTT assay. The class given is functional, cell-based. Conditions: SAOS-2, 72 h. Background: Tetrazolium dyes change colour on reduction, which living cells bring about.
The nature of assay [1]: Reduction in p53 R175H mutant protein level in human SAOS-2 cells assessed as ratio of test compound fluorescence to control fluorescence at 2 uM measured after 2 hrs by Hoechst 33342 staining based immunofluorescence assay. In kind it is functional.

Regarding `C/C=C/C=C/C=C/C1=C2C(=O)O[C@@H](C)C[C@@H](O)C[C@@H](O)[C@H]3C(=O)C[C@@H](O)[C@H](O1)[C@H]23`, the IC50 in the assay on SAOS-2 amounted to 12 µM. `C/C=C/C=C/C=C/C1=C2C(=O)O[C@@H](C)C[C@@H](O)C[C@@H](O)[C@@H]3C(=O)C=C[C@H](O1)[C@H]23` registered a half-inhibitory concentration (IC50) with SAOS-2 of 0.35 µM. For the same compound, the Ratio in assay [1] is 0.4. For `C/C=C/C=C\C=C\C1=C2C(=O)O[C@@H](C)CCCC[C@@H]3C(=O)C=C[C@H](O1)[C@H]23`, it took 0.36 µM to reach half-maximal inhibition in the assay on SAOS-2 (IC50). Further, in assay [1], the Ratio is 0.57.

`C/C=C/C=C/C=C/C1=C2C(=O)O[C@@H](C)C[C@@H](O)C[C@@H](O)[C@@H]3C(=O)C[C@@H](O)[C@H](O1)[C@H]23`: the 50% inhibitory concentration (IC50) in the assay with SAOS-2 is 21 µM.
